The results in this text go back to patent US20040157800A1, “Ascorbyl derivatives of carnitines and cosmetic compositions containing same” (priority 2001, published 2004).

The data set in a line: Weight increase, appearance and flowability after exposure to humidity (hygroscopicity). The format is physicochemical. Conditions: for Appearance / Weight increase (%): 60% relative humidity at 25° C. for 42 hours; for Hygroscopicity of the solid (in words): isolated crystalline solid; for Flowability: time needed by a 10-gram sample to pass through a funnel of 4 mm diameter, after 60% relative humidity at 25° C. for 42 hours. The method, then:
In the following Table 1, the weight increase (%) and the flowability of the compounds of the invention are compared with those of L-carnitine and acetyl L-carnitine inner salts following exposure of the compounds to 60% relative humidity at 25° C. for 42 hours. Reference method:
Pharmaeuropa November 1996.

Counter-ions that a name gives are not always drawn.

As for “Acetyl L-Carnitine Magnesium Ascorbyl Phosphate [Example 2]”, the Appearance result is “no variation”, the “Weight increase (%)” value is 0.14%, the “Hygroscopicity of the solid (in words)” value is “non-hygroscopic” and the Flowability worked out at 6 s.
Take `C[N+](C)(C)C[C@H](O)CC(=O)[O-]` [L-carnitine Inner salt, L-carnitine inner salt, reference compound]: the Appearance entry is “deliquescent” and the “Weight increase (%)” value was 19%.
Taken in the same sequence, the figures for `CC(=O)O[C@H](CC(=O)[O-])C[N+](C)(C)C` [acetyl L-carnitine Inner salt, acetyl L-carnitine inner salt, reference compound] were “deliquescent” and 20%.
Take “L-Carnitine Magnesium Ascorbyl Phosphate [Example 1]”: the Appearance entry is recorded as “no variation”, the “Weight increase (%)” value is 0.12%, the “Hygroscopicity of the solid (in words)” value is recorded as “non-hygroscopic” and the Flowability came to 5 s.
